Laboratory results from US8673370B2, “Method of improving cardiovascular health” (.Kemin Foods, L.C., priority 2006, dated 2014).

What was measured:
Assay type in all cases: in vivo, rat
[1] = system: spontaneously hypertensive (SHR) rats; assay: Mean arterial pressure (MAP), daily for 14 days, in conscious catheterized hypertensive rats
Method: (§1) Additionally, daily soy isoflavone (SoyLife®, Acatris, Minneapolis, Minn.) supplementation was administered with BCX to both normotensive (WKY) and spontaneously hypertensive (SHR) rats to determine any beneficial hemodynamic contributions of soy to genetic hypertension. Animals receiving daily oral doses of BCX or BCX combined with the soy extract and comparisons of specific hemodynamic parameters (heart rate and blood pressure) were monitored for a period of two weeks in SHR rats and their genetically WKY counterparts. Plasma hydrogen peroxide concentrations were evaluated and show the effects of BCX on reactive oxygen species and their purported contribution to elevations in blood pressure in this hypertensive animal paradigm (Wilcox C. S., Reactive oxygen species: roles in blood pressure and kidney function. Curr Hypertens Rep. 2002 April; 4(2):160-6).
(§2) 1. Three days prior to the beginning of experiments, femoral arterial and venous catheters were implanted for the measurement of blood pressure and heart rate and for the collection of blood samples for the analysis of plasma CRP and cholesterol. Animals were housed in metabolic cages for chronic daily analysis for the remainder of the protocol.
(§3) SHR and WKY rats (Harlan, Indianapolis, Ind.) at age 10 weeks and weighing ˜250 g were used as experimental subjects and monitored for a two week period. All experimental protocols were performed in conscious, unrestrained animals. The animals were individually housed in wire mesh cages in temperature-controlled rooms (23° C.) with a 12-hour light/dark cycle. Each animal was allowed free access to isoflavone reduced chow (Harlan, Indianapolis, Ind.) and distilled water throughout the protocol(s). In addition to ad libitum food and water, animals were dosed daily by oral gavage with BCX (1.0 mg/kg, in safflower oil) or BCX+soy (1.0 mg BCX/kg+80 mg isoflavones/kg, in safflower oil). BCX dosage levels were based on the amount of BCX humans consume when eating according to the Dietary Guidelines for Americans: 0.5-1.0 mg per day (United States Department of Health and Human Services and United States Department of Agriculture. Dietary Guidelines for Americans 2005. Jan. 12, 2005. http://www.healthierus.gov/dietaryguidelines/; Centers for Disease Control and Prevention. National Center for Health Statistics. National Health and Nutrition Examination Survey Data 2001-2002. http://www.cdc.gov/nchs/about/major/nhanes/nhanes01-02.htm).
All surgical procedures were performed in animals anesthetized with sodium pentobarbital (Nembutal®, Abbott Laboratories) at a dose of 50 mg/kg, i.p. In addition, all surgery was performed under sterile conditions in a location in the laboratory dedicated for that purpose and according to those procedures adopted by the IACUC at Des Moines University-Osteopathic Medical Center. The implantations of femoral arterial and venous catheters were performed three days prior to any experimentation. The arterial and venous catheters were constructed from silicone and Tygon® tubing (Saint-Gobain Performance Plastics Corporation). The smaller silicone tubing was placed within the vessel, via the external iliac artery, to minimize tissue irritation and reaction. Normal body temperature was maintained during anesthesia via an electronically maintained dermal pad. The animals were shaved at the top of the head, back of the neck and the inner left leg. The silicone tips were inserted through a 3.0 cm incision made on the inner left leg for cannulation of the internal iliac vein and femoral artery; the arterial catheter was sutured to the leg in a manner preventing occlusion of the catheter during normal rat movement. Excess catheter was directed subcutaneously and externalized through a 2.5 cm incision made in the dermis overlying bregma. The cranial incision was made with a scalpel after which three 0.19″ jeweler's screws were attached to the cranium in a 1.0 cm^2 area which encompasses bregma. […]

[2] = system: normotensive (WKY) rats; assay: Mean arterial pressure (MAP), daily for 14 days, in conscious catheterized normotensive rats; conditions: for Blood pressure, Significance, comparison over 14 days: WKY rats
Method: as §1, §2
(§4) SHR and WKY rats (Harlan, Indianapolis, Ind.) at age 10 weeks and weighing ˜250 g were used as experimental subjects and monitored for a two week period. All experimental protocols were performed in conscious, unrestrained animals. The animals were individually housed in wire mesh cages in temperature-controlled rooms (23° C.) with a 12-hour light/dark cycle. Each animal was allowed free access to isoflavone reduced chow (Harlan, Indianapolis, Ind.) and distilled water throughout the protocol(s). In addition to ad libitum food and water, animals were dosed daily by oral gavage with BCX (1.0 mg/kg, in safflower oil) or BCX+soy (1.0 mg BCX/kg+80 mg isoflavones/kg, in safflower oil). […]

[3] = system: spontaneously hypertensive (SHR) rats; assay: Heart rate (HR), daily for 14 days, in conscious catheterized hypertensive rats; conditions: for Effect on heart rate (in words): vs. control fed food only (SHR-Control)
Method: as §1, §2, §3
All surgical procedures were performed in animals anesthetized with sodium pentobarbital (Nembutal®, Abbott Laboratories) at a dose of 50 mg/kg, i.p. In addition, all surgery was performed under sterile conditions in a location in the laboratory dedicated for that purpose and according to those procedures adopted by the IACUC at Des Moines University-Osteopathic Medical Center. The implantations of femoral arterial and venous catheters were performed three days prior to any experimentation. The arterial and venous catheters were constructed from silicone and Tygon® tubing (Saint-Gobain Performance Plastics Corporation). The smaller silicone tubing was placed within the vessel, via the external iliac artery, to minimize tissue irritation and reaction. Normal body temperature was maintained during anesthesia via an electronically maintained dermal pad. The animals were shaved at the top of the head, back of the neck and the inner left leg. […]

[4] = system: normotensive (WKY) rats; assay: Heart rate (HR), daily for 14 days, in conscious catheterized normotensive rats
Method: as §1, §2, §4

[5] = vs. SHR-Control (rat chow only)
[6] = vs. SHR-Saff (safflower oil only)
[7] = vs. WKY-Saff (safflower oil only)

CC1=C(/C=C/C(C)=C/C=C/C(C)=C/C=C/C=C(C)/C=C/C=C(C)/C=C/C2=C(C)C[C@@H](O)CC2(C)C)C(C)(C)CCC1 [BCX, β-cryptoxanthin]
Days with statistically significant difference in blood pressure ([1]; vs. SHR controls, p<0.05): 4 to 13 days | Blood pressure, Significance, comparison over 14 days [1, 5]: Yes | Blood pressure, Significance, comparison over 14 days [1, 6]: No | Effect on mean arterial pressure / blood pressure (in words) ([1]; vs. control fed food only (SHR-Control)): statistically decreased the blood pressure | Effect on mean arterial pressure / blood pressure (in words) ([1]; vs. control fed food only (SHR-Control), listed as β-cryptoxanthin): significantly lower | Effect on mean arterial pressure / blood pressure (in words) ([1]; vs. safflower oil control (SHR-Saff)): significantly lower | Change in blood pressure (in words) ([2]; WKY normotensive rats, over 14 days of supplementation): did not show any significant blood pressure change | Blood pressure, Significance, comparison over 14 days ([2]; vs. WKY-Control): No | Blood pressure, Significance, comparison over 14 days [2, 7]: No | Heart rate, Significance, comparison over 14 days [3, 5]: Yes | Days with statistically significant lower heart rate ([3]; vs. SHR-Control, p<0.05): 6 to 13 days | Heart rate, Significance, comparison over 14 days [3, 6]: No | Effect on heart rate (in words) [3]: statistically decreased the heart rate | Effect on heart rate (in words) ([3]; listed as β-cryptoxanthin): significantly lower | Effect on heart rate (in words) ([4]; vs. WKY-Control): statistical decrease in heart rate | Heart rate, Significance, comparison over 14 days ([4]; vs. WKY-Control): Yes | Heart rate, Significance, comparison over 14 days [4, 7]: No
